According to patent US20080051454A1, “Compositions and methods for transient receptor potential vanilloid (TRPV) channel mediated treatments” (The Board of Trustees Operating Michigan State University, priority 2006, published 2008):

Legend:
rats = assay: Mean arterial pressure before and after left renal pelvis perfusion (LRPP) treatments; type: in vivo, rat; conditions: for Mean arterial pressure, Treatment: after treatment; for Mean arterial pressure, Baseline: before treatment
Description: Urine flow rate (V, FIG. 3a) and urinary sodium excretion (UNaV, FIG. 3b) of the contralateral kidney are shown (n=5-6 in each group). +vs baseline and all other groups, +p<0.05.

male Wistar rats = assay: Depressor effect of 20-HETE analog DSR given IV, with or without antagonists; type: in vivo, rat; conditions: DSR 1 mg/kg with CAPZ 3 mg/kg, RP67580 4 mg/kg or CGRP 8-37 3 mg/kg
hearts of WT mice = assay: Langendorff perfused heart, ischemia and reperfusion (I/R) with OLDA, wild type; set-up: species or system mouse; conditions: antagonist 1×10^−6 M
Procedure: The following measurements were made on the two types of heart tissue: left ventricular end-diastolic pressure (LVEDP), left ventricular developed pressure (LVDP), coronary flow (CF), and left ventricular (LV) peak positive rate of pressure change/rate of time change (+dP/dt) were evaluated after I/R.

WT hearts [1] = assay: Preconditioning (PC) protection against I/R in Langendorff hearts with receptor antagonists, wild type; set-up: species or system mouse; conditions: for effect on PC-induced cardiac protection (LVEDP, LVDP, CF, +dP/dt, −dP/dt) in WT hearts: CAPZ 10^−7 M, CGRP8-37 10^−6 M, RP67580 10^−7 M
Procedure: (§1) Male TRPV1 gene knockout (TRPV1-/-) strain B6.129S[…][…]^tm1Jul and matching control wild type (WT) strain C57BL/6J mice were used (Jackson Laboratory, Bar Harbor, Me.). Mice were heparinized (500 U/kg i.p.) and anesthetized with pentobarbital sodium (50 mg/kg i.p.). […] The distal end of the catheter was connected to a […] Performance Analyzer via a pressure transducer. Coronary flow (CF) was continuously measured using an ultrasonic flow probe placed in the aortic perfusion line. Hearts were paced at 400 bpm except during ischemic PC and sustained global ischemia to avoid inducing excessive ventricular tachyarrhythmia during reperfusion, and pacing was reinitiated 2 minutes after reperfusion. Left ventricular developed pressure (LVDP, peak systolic minuses LVEDP) and LV peak positive […]) during isovolumic contraction were used as indices of LV systolic function; LVEDP and the peak negative […] used as indices of LV diastolic function. […] Non-preconditioned hearts were time-matched perfused with the same duration as that of preconditioned hearts. Group 1: Controls. As normal controls (nonischemic), WT and TRPV1-/- hearts were perfused for 130 minutes. For I/R controls, WT and TRPV1-/- hearts were first perfused with Krebs-Henseleit buffer for 55 min (time-matched perfusion of the equilibration period plus the PC period), and subsequently subjected to 30 minutes of no-flow normothermic global ischemia followed by 40-minutes of reperfusion. Group 2: PC. […] The hearts were subjected to 30 minutes of no-flow normothermic global ischemia followed by 40-minutes of reperfusion as that of I/R control groups. Group 3: PC plus capsazepine (CAPZ). […] Two additional concentrations of CAPZ, 10^-6M and 10^-8 M, were used in WT hearts. An additional drug control was added. After a 20-minute equilibration period, WT hearts were perfused with CAPZ (10^-7 M) for 10 minutes without PC, followed by perfusion with Krebs-Henseleit buffer for 25 minutes (time-matched perfusion of the PC period) and then subjected to I/R. Group 4: […] Two additional concentrations of CGRP8-37, 10^-5 M and 10^-7 M, were used in WT hearts. An additional drug control of CGRP8-37 was added as that of the CAPZ control group. Group 5: PC plus RP67580. To determine the role of endogenous SP during PC, hearts from WT and TRPV1-/-mice were perfused as that of CAPZ with RP67580 (10^-7 M), a selective neurokinin-1 (NK1) receptor antagonist. Two additional concentrations of RP67580, 10^-6 M and 10^-8 M, were used in WT hearts. An additional drug control of RP67580 was added as that of the CAPZ control group.

TRPV1−/− hearts = assay: Preconditioning (PC) protection against I/R in Langendorff hearts with receptor antagonists, TRPV1-null; set-up: species or system mouse; conditions: CAPZ 10^−7 M, CGRP8-37 10^−6 M, RP67580 10^−7 M
Procedure: as §1, with “Two additional concentrations of CGRP8-37, 10^-5 M and 10^-7 M, were used in WT hearts. An additional drug control of CGRP8-37 was added as that of the CAPZ control group. Group 5: PC plus RP67580. To determine the role of endogenous SP during PC, hearts from WT and TRPV1-/-mice were perfused as that of CAPZ with RP67580 (10^-7 M), a selective neurokinin-1 (NK1) receptor antagonist. Two additional concentrations of RP67580, 10^-6 M and 10^-8 M, were used in WT hearts. An additional drug control of RP67580 was added as that of the CAPZ control group.” left out

WT hearts [2] = assay: Lactate dehydrogenase (LDH) release during I/R; set-up: species or system mouse
Procedure: Lactate dehydrogenase (LDH) release: In addition to the measurement of cardiac function, cardiac injury was assessed by measuring LDH release. Perfusion effluent was collected during the first 10 minutes to 20 minutes of I/R and stored at […] until analyzed. Total LDH levels were determined with the use of a CytoTox 96 assay (Promega). The data were expressed as absorbance units released per milliliter per minute per gram of heart wet tissues (Turnbull et al., Am J Physiol Heart Circ Physiol 290: […]-9, 2006; herein incorporated by reference).

[3] = tested on: Wistar rats (Con-NS, Con-HS, Cap-NS, Cap-HS); assay: Natriuretic, diuretic and depressor effects of i.v. diuretics in control and capsaicin-pretreated rats on normal or high sodium diet; type: in vivo, rat; conditions: intravenous
Procedure: (a) Urine flow rate. (b) Urine sodium excretion. […] (c) Mean arterial pressure. […] Vehicle; trichlormethiazide.
(a) Urine flow rate. (b) Urine sodium excretion. […] (c) Mean arterial pressure.
(a) Urine flow rate. (b) Urine sodium excretion. […] (c) Mean arterial pressure. […] Vehicle; amiloride.
Design and methods Neonatal Wistar rats were treated with capsaicin or vehicle. Seven-week-old male rats were treated for 2 weeks with: vehicle plus a normal (Con-NS) or high (Con-HS) sodium diet, and capsaicin pretreatment plus a normal (Cap-NS) or high (Cap-HS) sodium diet. Mean arterial pressure (MAP), renal excretory function, and protein expression determined by Western blot were performed.

renal cortex and medulla = assay: Neonatal capsaicin treatment plus NS or HS diet: renal superoxide, SOD and NAD(P)H oxidase subunits; set-up: species or system rat
Procedure: Enhanced oxidative stress in kidneys of salt-sensitive hypertension: role of sensory nerves (Am J Physiol Heart Circ Physiol 291: H3136-H3143, 2006). To determine the mechanism(s) underlying enhanced oxidative stress in kidneys of salt-sensitive hypertension, neonatal Wistar rats were given vehicle or capsaicin (CAP, 50 mg/kg sc) on the first and second days of life. After being weaned, male rats were assigned into four groups and treated for 2 wk with the following: vehicle+a normal sodium diet (NS, 0.4%, CON-NS), vehicle+a high-sodium diet (HS, 4%, CON-HS), CAP+NS (CAP−NS), and CAP+HS (CAP−HS). […] Plasma and urinary 8-iso-prostaglandin F2alpha levels increased by approximately 40% in CON-HS and CAP−HS rats compared with their respective controls fed a NS diet (P≦0.05), and these parameters were higher in CAP−HS compared with CON-HS rats. Superoxide (O2—) levels in the renal cortex and medulla increased by approximately 45% in CAP−HS compared with CON-HS, CON-NS, and CAP−NS rats (P≦0.05). […]

WT and TRPV1−/− hearts = assay: OLDA-induced CGRP and SP release from hearts (radioimmunoassay); set-up: species or system mouse
[4] = tested on: high-salt plus capsaicin pretreated rats; conditions: rat, in vivo; cited from earlier work
[5] = tested on: Wistar rats fed a normal-salt (NS) or high-salt (HS) diet for 10 days; assay: MAP and HR responses to i.v. bolus NADA with or without antagonists in conscious rats; type: in vivo, rat; conditions: for prolonged depressor effect of NADA (decrease in MAP) after antagonist: NADA 4 mg/kg after CAPZ 3 mg/kg, CGRP8-37 infusion or SR141716A 3 mg/kg
Description: In brief: Wistar rats were fed a normal (NS, 0.4%) or high (HS, 4%) sodium diet for 10 days, then artery and vein were cannulated for measurement of mean arterial pressure (MAP) or for injection of drugs and collection of plasma.
Animal Preparation: Male Wistar rats (7 weeks old, Charles River Laboratory, Wilmington, Mass.) were housed in the animal facility for 1 week before the experiment. Rats were grouped randomly and pair-fed a NS (0.4% of Na^+ by weight) or HS (4% of Na^+ by weight) diet for 10 days. The rat chow was purchased from Harlan Teklad Diets (Madison, Wis.). Drinking water was available ad libitum throughout the experiment. All protocols were in accordance with the National Institutes of Health Guidelines for the Care and Use of Laboratory Animals.
(§2) Surgical Preparation Rats were anesthetized with ketamine and xylazine (80 and 4 mg/kg intraperitoneally, respectively) for cannulation or with urethane (1.5 g/kg intraperitoneally) for capsaicin administration. The left jugular vein, carotid and femoral artery were cannulated under anesthesia for injection of drugs or monitoring of mean arterial pressure (MAP) and heart rate (HR).
Three hours after surgery, baseline MAP and its response to the above-mentioned drugs were obtained with the rats fully awake and unrestrained [Wang et al., Am J Physiol 2004; 287:H1868-H[874]. NADA was injected in increasing doses (1, 4, and 10 mg/kg intravenous bolus) in 3 subgroups of rats (each group for each dose). To determine the role of TRPV1 and CB 1 receptor in NADA-induced hypotension, NADA (4 mg/kg) was injected 10 minutes or 20 minutes after intravenous injection of CAPZ (3 mg/kg) or SR141716A (3 mg/kg), respectively.
To examine the effect of CGRP8-37 on NADA-induced hypotension, CGRP8-37 was intravenously administered at the rate of 1 mg/kg/min for 2 minutes followed by injection at the rate of 0.5 mg/kg/min for 15 minutes. NADA (4 mg/kg) was injected 1 minute after CGRPs-37 administration. The effectiveness of the dose and time frame for CGRP8-37 injection was verified by blockade of the hypotensive response to capsaicin (30 μg/kg) (n=5).

[6] = tested on: Wistar rats fed a NS or HS diet for 10 days; assay: MAP responses to i.v. capsaicin with or without CAPZ in urethane-anesthetized rats; type: in vivo, rat; conditions: CGRP8-37 infusion; capsaicin 30 μg/kg
Procedure: as §2
Each dose of injection was separated by a 30-minute interval. To determine the specificity of capsaicin, CAPZ (3 mg/kg) was administered 10 minutes before capsaicin injection in a separate group.

[Cl-].[K+] [150 KCl, KCl]
Mean arterial pressure, Treatment (rats): 125 ± 4 mmHg
Mean arterial pressure, Baseline (rats): 123 ± 6 mmHg

[Cl-].[Na+] [600 mM NaCl, NaCl]
Mean arterial pressure, Treatment (rats): 117 ± 2 mmHg
Mean arterial pressure, Baseline (rats): 115 ± 2 mmHg

OC[C@@H](O)[C@@H](O)[C@H](O)[C@H](O)CO [1200 mOsm Mannitol, Mannitol]
Mean arterial pressure, Treatment (rats): 121 ± 7 mmHg
Mean arterial pressure, Baseline (rats): 121 ± 6 mmHg

COc1ccccc1CC(=N)N1C[C@@H]2C(=O)CCC(c3ccccc3)(c3ccccc3)[C@@H]2C1 [RP67580]
DSR induced-depressor effect after antagonist (male Wistar rats): 9.4±2.3 mmHg
effect on protective effect of OLDA in WT hearts (hearts of WT mice): abolished
effect on cardiac function in WT hearts without I/R (WT hearts [1]): no effect on cardiac function
effect on PC-induced cardiac protection (LVEDP, LVDP, CF, +dP/dt, −dP/dt) in WT hearts (WT hearts [1]): abolished
effect on CF in WT hearts (WT hearts [1]; PC plus I/R): no effect on CF
effect on these parameters in TRPV1−/− hearts (TRPV1−/− hearts): no effect
effect on PC protection assessed by LDH levels after I/R in WT hearts (WT hearts [2]): abolished

N=C(N)NC(=O)c1nc(Cl)c(N)nc1N [amiloride]
effect on MAP (words) [3]: no effect on MAP in any group
time of peak urine flow rate (UFR) after injection [3]: 10 min
urine flow / urine sodium excretion (words) [3]: significantly increased
effect on MAP (words) ([3]; listed as Amiloride): no effect
urine flow / urine sodium excretion (words) ([3]; listed as Amiloride): no effect

COc1cc(C(C)=O)ccc1O [apocynin]
O2— production in renal cortex after ex vivo incubation (renal cortex and medulla; apocynin 0.1 mM, CAP−HS rats): 2.83 0.38 nmol_min—1_mg dry wt—1
O2— production in renal medulla after ex vivo incubation (renal cortex and medulla; apocynin 0.1 mM, CAP−HS rats): 1.73 0.23 nmol_min—1_mg dry wt—1
effect on O2— production (renal cortex and medulla; apocynin, CON-HS, CON-NS and CAP−NS rats): no significant effects
effect on enhanced O2— levels in cortex and medulla of CAP−HS rats (renal cortex and medulla; preincubation of renal tissues with apocynin): prevented

COc1ccc2c(c[n+](C)c3c4cc5c(cc4ccc23)OCO5)c1OC [chelerythrine]
effect on OLDA-increased CGRP and SP release in WT hearts (WT and TRPV1−/− hearts): blocked

NS(=O)(=O)c1cc(C(=O)O)c(NCc2ccco2)cc1Cl [furosemide]
effect on MAP (words) [3]: decreased MAP in Cap-HS but not in Cap-NS, Con-NS, and Con-HS rats
time of peak urine flow rate (UFR) after injection [3]: 5 min
effect on MAP (words) ([3]; listed as Furosemide): decreased MAP in Cap-HS rats only

CCCCc1nc(Cl)c(CO)n1Cc1ccc(-c2ccccc2-c2nn[nH]n2)cc1 [losartan]
effect on the impaired natriuretic response [4]: unable to prevent
prevention of the development of salt-induced hypertension [4]: prevented

NS(=O)(=O)c1cc2c(cc1Cl)NC(C(Cl)Cl)NS2(=O)=O (stereo not shown) [trichlormethiazide]
effect on MAP (words) [3]: decreased MAP in Cap-HS but not in Cap-NS, Con-NS, and Con-HS rats
time of peak urine flow rate (UFR) after injection [3]: 10 min
urine flow / urine sodium excretion (words) [3]: significantly increased
effect on MAP (words) ([3]; listed as Trichlormethiazide): decreased MAP in Cap-HS rats only
urine flow / urine sodium excretion (words) ([3]; listed as Trichlormethiazide): increased

CGRP8-37: selective calcitonin gene-related peptide (CGRP) receptor antagonist peptide
effect of antagonist on NADA-induced depressor effect ([5]; NADA 4 mg/kg): abolished
prolonged depressor effect of NADA (decrease in MAP) after antagonist ([5]; HS diet): 6±3 mmHg
prolonged depressor effect of NADA (decrease in MAP) after antagonist ([5]; NS diet): 5±2 mmHg
effect on hypotensive response to capsaicin [6]: blockade
DSR induced-depressor effect after antagonist (male Wistar rats): 9.3±3.3 mmHg
effect on protective effect of OLDA in WT hearts (hearts of WT mice): abolished
effect on cardiac function in WT hearts without I/R (WT hearts [1]): no effect on cardiac function
effect on PC-induced cardiac protection (LVEDP, LVDP, CF, +dP/dt, −dP/dt) in WT hearts (WT hearts [1]): blocked PC-induced cardioprotective effects
effect on these parameters in TRPV1−/− hearts (TRPV1−/− hearts): no effect
effect on PC protection assessed by LDH levels after I/R in WT hearts (WT hearts [2]): abolished
